pIC50: −log10 of the molar value. Where two headings read alike, the source gives them in different places. Where only a bound is given, the exact number is not on record here.

The target of assay [1] is T1, baculovirus-expressed ALK (Homo sapiens, UniProt Q9UM73).
T1 construct: host or cells: baculovirus expression system
Put plainly: ALK Kinase Assay (ELISA-type, time-resolved fluorescence). It is filed as biochemical. In a few lines: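 Wells were coated with phospholipase C-γ at 10 μg/mL in Tris-buffered saline. Adding 30 ng/ml enzyme started the reaction, which ran at 37° C for 15 minutes before Eu-N1 PT66 antibody detection. Percent inhibition versus log10 concentration gave IC50 by variable-slope fit.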
In general terms: In an ELISA, binding on a coated surface is turned into a signal by an enzyme label.

The target of assay [2] is T2, c-Met (cytoplasmic domain) (Homo sapiens, UniProt P08581).
T2 construct: 10 ng/mL c-Met (cytoplasmic domain, Invitrogen Corporation #PV3143); purchased Invitrogen Corporation PV3143
T2 sequence (P08581 956-1390 limits assumed): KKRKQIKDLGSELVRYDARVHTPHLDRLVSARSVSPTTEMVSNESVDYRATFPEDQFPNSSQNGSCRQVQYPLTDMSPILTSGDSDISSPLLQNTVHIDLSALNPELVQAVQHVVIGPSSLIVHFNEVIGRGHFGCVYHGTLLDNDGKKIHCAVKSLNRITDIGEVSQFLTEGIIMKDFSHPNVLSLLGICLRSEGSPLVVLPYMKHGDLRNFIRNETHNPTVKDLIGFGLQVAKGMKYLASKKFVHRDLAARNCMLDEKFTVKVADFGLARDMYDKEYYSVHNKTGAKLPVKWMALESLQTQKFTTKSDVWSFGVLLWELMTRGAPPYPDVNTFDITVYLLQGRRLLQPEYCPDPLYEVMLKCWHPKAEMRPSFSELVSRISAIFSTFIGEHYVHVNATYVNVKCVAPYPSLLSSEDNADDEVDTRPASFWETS
The assay is described as follows: c-Met Kinase Assay (same methods as for ALK, with modifications). It is filed as biochemical. In a few lines:
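Steps: coat wells with PLC-γ (10 μg/mL, Tris-buffered saline); add 10 ng/mL c-Met cytoplasmic domain to initiate; incubate 15 min, 37° C; detect phosphoproduct via Eu-N1 PT66 antibody.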

The mark [3] stands for this setting: ALK kinase inhibition, 1 μM ATP, read-out: ALK Activity.
Where [4] appears, read: c-Met kinase inhibition, 1 μM ATP, read-out: cMet Activity.
Setting [5] is: 1 μM ATP (Km level), read-out: ALK Activity (ALK Kinase Inhibition, IC50).
Setting [6] is: 1 μM ATP (Km level), read-out: cMet Activity (c-Met Kinase Inhibition, IC50).
Where [7] appears, read: ALK kinase inhibition, 1 μM ATP (Km level), read-out: ALK Activity.
The mark [8] stands for this setting: c-Met kinase inhibition, 1 μM ATP (Km level), read-out: cMet Activity.
Where [9] appears, read: 1 μM ATP (Km level), 30 ng/ml ALK, 37° C., 15 minutes, read-out: ALK Activity (ALK kinase inhibition, IC50 class).
Where [10] appears, read: 1 μM ATP (Km level), 10 ng/mL c-Met, read-out: cMet Activity (c-Met kinase inhibition, IC50 class).

T1 sequence (Q9UM73 19-1620): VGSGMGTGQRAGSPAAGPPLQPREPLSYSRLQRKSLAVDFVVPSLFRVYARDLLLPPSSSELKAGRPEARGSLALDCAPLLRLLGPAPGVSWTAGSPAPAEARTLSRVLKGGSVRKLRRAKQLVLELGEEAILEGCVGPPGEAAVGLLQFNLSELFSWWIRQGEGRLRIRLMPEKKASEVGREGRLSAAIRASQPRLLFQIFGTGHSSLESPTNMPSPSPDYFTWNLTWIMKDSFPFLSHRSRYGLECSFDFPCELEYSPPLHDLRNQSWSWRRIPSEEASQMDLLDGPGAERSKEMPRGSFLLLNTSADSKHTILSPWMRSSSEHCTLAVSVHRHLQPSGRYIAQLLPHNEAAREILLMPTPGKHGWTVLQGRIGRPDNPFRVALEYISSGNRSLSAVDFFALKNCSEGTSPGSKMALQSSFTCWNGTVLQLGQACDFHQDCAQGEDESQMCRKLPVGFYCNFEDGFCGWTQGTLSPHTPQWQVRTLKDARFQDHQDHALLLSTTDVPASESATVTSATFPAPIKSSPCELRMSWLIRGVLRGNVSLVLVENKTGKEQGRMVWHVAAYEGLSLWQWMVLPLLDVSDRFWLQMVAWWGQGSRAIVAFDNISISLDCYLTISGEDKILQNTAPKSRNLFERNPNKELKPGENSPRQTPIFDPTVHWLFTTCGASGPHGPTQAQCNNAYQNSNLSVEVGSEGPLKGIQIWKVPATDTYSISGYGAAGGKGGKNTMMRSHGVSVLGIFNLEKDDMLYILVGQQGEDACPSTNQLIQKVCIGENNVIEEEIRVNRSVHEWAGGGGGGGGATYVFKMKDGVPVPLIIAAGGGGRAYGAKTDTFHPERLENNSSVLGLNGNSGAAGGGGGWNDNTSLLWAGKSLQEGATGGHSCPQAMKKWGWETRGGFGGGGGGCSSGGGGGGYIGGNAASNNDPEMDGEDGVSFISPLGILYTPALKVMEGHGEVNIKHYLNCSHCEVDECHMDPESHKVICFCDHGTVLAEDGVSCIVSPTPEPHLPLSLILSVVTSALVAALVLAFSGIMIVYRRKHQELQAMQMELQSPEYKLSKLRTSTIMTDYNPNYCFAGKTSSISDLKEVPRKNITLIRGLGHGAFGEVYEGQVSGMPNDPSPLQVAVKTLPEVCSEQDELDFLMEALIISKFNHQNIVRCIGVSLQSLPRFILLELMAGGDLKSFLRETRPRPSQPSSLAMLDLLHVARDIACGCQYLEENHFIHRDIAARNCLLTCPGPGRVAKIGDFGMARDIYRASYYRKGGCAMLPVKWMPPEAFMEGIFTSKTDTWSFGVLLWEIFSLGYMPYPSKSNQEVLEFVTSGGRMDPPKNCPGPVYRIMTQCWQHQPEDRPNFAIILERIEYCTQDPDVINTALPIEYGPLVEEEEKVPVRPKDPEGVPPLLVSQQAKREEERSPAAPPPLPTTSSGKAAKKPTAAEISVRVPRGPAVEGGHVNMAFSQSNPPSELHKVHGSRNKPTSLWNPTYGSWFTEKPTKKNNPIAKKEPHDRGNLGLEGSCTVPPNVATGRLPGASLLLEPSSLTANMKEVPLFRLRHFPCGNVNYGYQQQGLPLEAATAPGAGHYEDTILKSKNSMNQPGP

Turning to `COc1cc2c(cc1Nc1ncc(Cl)c(Nc3ccccc3S(=O)(=O)N3CCC(O)C3)n1)CCN(CC(C)O)CC2` (centres unmarked) [Example 1552, 1-(2-{5-Chloro-2-[3-(2-hydroxy-propyl)-8-methoxy-2,3,4,5-tetrahydro-1H-3-benzazepin-7-ylamino]-pyrimidin-4-ylamino}-benzenesulfonyl)-pyrrolidin-3-ol], the pIC50 in assay [1] (setting [3]) is over 7.00; in assay [2] (setting [4]), 5.00 to 6.00.
For the compound `CNC(=O)c1ccccc1Nc1nc(Nc2ccc3c(c2)CN(CCO)CCS3)ncc1Cl` [Example 528, 2-{5-Chloro-2-[8-(hydroxyl-ethyl)-6,7,8,9-tetrahydro-5-thia-8-aza-benzoylcyclohepten-2-ylamino]-pyrimidin-4-ylamino}-N-methyl-benzamide], the pIC50 in assay [1] (setting [5]) and in assay [2] (setting [6]) was over 7.00 in each case.
`CCN1CC(=O)Nc2cc(Nc3ncc(Cl)c(Nc4ccccc4S(=O)(=O)C(C)C)n3)c(OC)cc2C1` [Example 1660, 8-{5-Chloro-4-[2-(propane-2-sulfonyl)-phenylamino]-pyrimidin-2-ylamino}-4-ethyl-7-methoxy-1,3,4,5-tetrahydro-benzo[e][1,4]diazepin-2-one]: the pIC50 in assay [1] (setting [3]) is over 7.00; in assay [2] (setting [4]), under 5.00.
`COCCN1CCc2ccc(OC)c(Nc3ncc(Cl)c(N[C@@H]4CCCC[C@H]4NS(C)(=O)=O)n3)c2CC1` [Example 244, N-((1R,2R)-2-{5-Chloro-2-[7-methoxy-3-(2-methoxy-ethyl)-2,3,4,5-tetrahydro-1H-benzo[d]azepin-6-ylamino]-pyrimidin-4-ylamino}-cyclohexyl)-methanesulfonamide]: the pIC50 is 5.00 to 6.00 in assay [1] (setting [7]) and under 5.00 in assay [2] (setting [8]).
Regarding `COc1cc(N2CCOCC2)ccc1Nc1nc(Nc2ccc3c(c2)CCN(C[C@H](O)C(F)(F)F)CC3)ncc1Cl` [Example 330, (S)-3-{7-[5-Chloro-4-(2-methoxy-4-morpholin-4-yl-phenylamino)-pyrimidin-2-ylamino]-1,2,4,5-tetrahydro-benzo[d]azepin-3-yl}-1,1,1-trifluoro-propan-2-ol], the pIC50 was over 7.00 in assay [1] (setting [7]) and under 5.00 in assay [2] (setting [8]).
As to `COc1cc2c(cc1Nc1ncc(Cl)c(Nc3ccccc3S(=O)(=O)N3CCCC3)n1)CCN(CC(C)O)CC2` (centres unmarked) [Example 1553, 1-(7-{5-Chloro-4-[2-(pyrrolidine-1-sulfonyl)-phenylamino]-pyrimidin-2-ylamino}-8-methoxy-1,2,4,5-tetrahydro-3-benzazepin-3-yl)-propan-2-ol], the pIC50 in assay [1] (setting [3]) was over 7.00; in assay [2] (setting [4]), 6.00 to 7.00.
With `CNC(=O)c1cccc(F)c1Nc1nc(Nc2ccc3c(c2)N(C(C)C)CCCO3)ncc1Cl` [Example 1734, 2-[5-Chloro-2-(9-isopropyl-6,7,8,9-tetrahydro-5-oxa-9-aza-benzocyclohepten-2-ylamino)-pyrimidin-4-ylamino]-3-fluoro-N-methyl-benzamide], the pIC50 in assay [1] (setting [3]) and in assay [2] (setting [4]) was over 7.00 in each case.
As to `CNC(=O)c1ncccc1Nc1nc(Nc2ccc3c(c2)CC(=O)N(C)CC3)ncc1Cl` [Example 1820, 3-[5-Chloro-2-(3-methyl-4-oxo-2,3,4,5-tetrahydro-1H-benzo[d]azepin-7-ylamino)-pyrimidin-4-ylamino]-pyridine-2-carboxylic acid methylamide], the pIC50 in assay [1] (setting [3]) is over 7.00; in assay [2] (setting [4]), 5.00 to 6.00.
In the case of `CCN1C(=O)CCC(C)(C)c2ccc(Nc3ncc(Cl)c(Nc4ccc(N(C)C)cc4S(=O)(=O)N(C)C)n3)cc21` [Example 850, 2-[5-Chloro-2-(1-ethyl-5,5-dimethyl-2-oxo-2,3,4,5-tetrahydro-1H-benzo[b]azepin-8-ylamino)-pyrimidin-4-ylamino]-5-dimethylamino-N,N-dimethyl-benzenesulfonamide], the pIC50 in assay [1] (setting [5]) is over 7.00; in assay [2] (setting [6]), 6.00 to 7.00.
Regarding `CS(=O)(=O)N[C@@H]1CCCC[C@H]1Nc1nc(Nc2ccc3c(c2)CCC(=O)CC3)ncc1Cl` [Example 174, N-{(1R,2R)-2-[5-Chloro-2-(7-oxo-6,7,8,9-tetrahydro-5H-benzocyclohepten-2-ylamino)-pyrimidin-4-ylamino]-cyclohexyl}-methanesulfonamide], the figures for the pIC50 in assay [1] (setting [7]) and in assay [2] (setting [8]) were over 7.00 and 6.00 to 7.00, respectively.
Turning to `CCN1CCN(CC)c2cc(Nc3ncc(Cl)c(Nc4ccccc4OCC#N)n3)ccc2C1` [Example 731, {2-[5-Chloro-2-(1,4-diethyl-2,3,4,5-tetrahydro-1H-benzo[e][1,4]diazepin-8-ylamino)-pyrimidin-4-ylamino]-phenoxy}-acetonitrile], the pIC50 in assay [1] (setting [5]) was over 7.00; in assay [2] (setting [6]), 6.00 to 7.00.
Take `CNC(=O)c1ccccc1Nc1nc(Nc2ccc3c(c2)CNC(=O)NC3)ncc1Cl` [Example 227, 2-[5-Chloro-2-(3-oxo-2,3,4,5-tetrahydro-1H-benzo[e][1,3]diazepin-7-ylamino)-pyrimidin-4-ylamino]-N-methyl-benzamide]: the pIC50 in assay [1] (setting [7]) and in assay [2] (setting [8]) was over 7.00 throughout.
Turning to `CNC(=O)c1cc(C)cc(C)c1Nc1nc(Nc2ccc3c(c2)CCNC(=O)C3)ncc1Cl` [Example 1814, 2-[5-Chloro-2-(2-oxo-2,3,4,5-tetrahydro-1H-benzo[d]azepin-7-ylamino)-pyrimidin-4-ylamino]-3,5,N-trimethyl-benzamide], the pIC50 was over 7.00 in assay [1] (setting [3]) and 6.00 to 7.00 in assay [2] (setting [4]).
On to `CNC(=O)c1ccccc1Nc1nc(Nc2ccc3c(c2)CCN(CC(C)(C)F)CC3)ncc1Cl` [Example 39, 2-{5-Chloro-2-[3-(2-fluoro-2-methyl-propyl)-2,3,4,5-tetrahydro-1H-benzo[d]azepin-7-ylamino]-pyrimidin-4-ylamino}-N-methyl-benzamide], for which the pIC50 in assay [1] (setting [7]) is over 7.00; in assay [2] (setting [8]) it was 6.00 to 7.00.
For `CNC(=O)c1ccccc1Nc1nc(Nc2ccc3c(c2)N(C)CCNC3=O)ncc1Cl` [Example 414, 2-[5-Chloro-2-(1-methyl-5-oxo-2,3,4,5-tetrahydro-1H-benzo[e][1,4]diazepin-8-ylamino)-pyrimidin-4-ylamino]-N-methylbenzamide] the same measures were over 7.00 and over 7.00.
For `CCN1C(=O)CCCc2c1ccc(Nc1ncc(Cl)c(N[C@@H]3[C@@H]4C[C@@H]([C@@H](O)[C@H]4O)[C@@H]3C(N)=O)n1)c2OC` [Example 1699, (1R,2S,3R,4S,5S,6R)-3-[5-Chloro-2-(1-ethyl-6-methoxy-2-oxo-2,3,4,5-tetrahydro-1H-benzo[b]azepin-7-ylamino)-pyrimidin-4-ylamino]-5,6-dihydroxy-bicyclo[2.2.1]heptane-2-carboxylic acid amide], the pIC50 in assay [1] (setting [3]) was 6.00 to 7.00; in assay [2] (setting [4]), under 5.00.
For the compound `CCN1C(=O)C(NC(=O)C(F)(F)F)CCc2c1ccc(Nc1ncc(Cl)c(N[C@@H]3CCCC[C@H]3NS(C)(=O)=O)n1)c2OC` (stereo partly drawn) [Example 1335, N-{7-[5-Chloro-4-((1R,2R)-2-methanesulfonylamino-cyclohexylamino)-pyrimidin-2-ylamino]-1-ethyl-6-methoxy-2-oxo-2,3,4,5-tetrahydro-1H-benzo[b]azepin-3-yl}-2,2,2-trifluoro-acetamide], the pIC50 in assay [1] (setting [9]) is over 7.00; in assay [2] (setting [10]), under 5.00.
`CNC(=O)c1cccc(F)c1Nc1nc(Nc2ccc3c(c2)CCCC(=O)N3CCOC)ncc1Cl` [Example 356, 2-{5-Chloro-2-[1-(2-methoxy-ethyl)-2-oxo-2,3,4,5-tetrahydro-1H-benzo[b]azepin-7-ylamino]-pyrimidin-4-ylamino}-3-fluoro-N-methyl-benzamide]: the pIC50 in assay [1] (setting [7]) and in assay [2] (setting [8]) was over 7.00 throughout.
`CNC(=O)c1cccc(Cl)c1Nc1nc(Nc2ccc3c(c2)-c2nccn2CCC3)ncc1Cl` [Example 1845, 2-[5-Chloro-2-(5,6-dihydro-4H-1,3a-diaza-benzo[e]azulen-9-ylamino)-pyrimidin-4-ylamino]-3-chloro-N-methyl-benzamide]: the pIC50 in assay [1] (setting [3]) and in assay [2] (setting [4]) was 6.00 to 7.00 each time.
Consider `CNC(=O)c1scc(C)c1Nc1nc(Nc2ccc3c(c2)-c2nccn2CCC3)ncc1Cl` [Example 1846, 3-[5-Chloro-2-(5,6-dihydro-4H-1,3a-diaza-benzo[e]azulen-9-ylamino)-pyrimidin-4-ylamino]-4-methyl-thiophene-2-carboxylic acid methylamide], for which the pIC50 in assay [1] (setting [3]) is 5.00 to 6.00; in assay [2] (setting [4]), 6.00 to 7.00.
Take `CNC(=O)c1cccc(F)c1Nc1nc(Nc2ccc3c(c2)N(C(=O)N2CCCC2)CCCC3(C)C)ncc1Cl` [Example 1620, 2-{5-Chloro-2-[5,5-dimethyl-1-(pyrrolidine-1-carbonyl)-2,3,4,5-tetrahydro-1H-benzo[b]azepin-8-ylamino]-pyrimidin-4-ylamino}-3-fluoro-N-methyl-benzamide]: the pIC50 in assay [1] (setting [3]) and in assay [2] (setting [4]) was 6.00 to 7.00 in each case.
Take `COc1cc2c(cc1Nc1ncc(Cl)c(Nc3ccccc3S(=O)(=O)C(C)C)n1)CCC(NCCO)CC2` (centres unmarked) [Example 1090, 2-(2-{5-Chloro-4-[2-(propane-2-sulfonyl)-phenylamino]-pyrimidin-2-ylamino}-3-methoxy-6,7,8,9-tetrahydro-5H-benzocyclohepten-7-ylamino)-ethanol]: the results for the pIC50 in assay [1] (setting [9]) and in assay [2] (setting [10]) were over 7.00 and 5.00 to 6.00, respectively.

The values are drawn from patent publication US8148391B2 (Cephalon, Inc., priority 2006, dated 2012).
